Measurements: PubChem BioAssay AID1159559 (GlaxoSmithKline (GSK), 2015)
The source made the active and inactive calls.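 The calls were made as follows: active = compounds whose IC50 against parasite growth in infected mouse cells is below 50000 nM; inactive = the rest.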

Tested on: T. cruzi Tulahuen in NIH-3T3, beta-gal fluorescence, 4 d
Assay: anti-Chagas amastigote proliferation inhibitors – cell-based (AID 1159559)

Row | SMILES | IC50
1 | O=C(c1cnn(-c2ccccc2)n1)N1CCCC(n2ccnc2)C1 (stereo not given) | 50 nM
2 | CC(C)Nc1nccc(-c2c(-c3ccc(F)cc3)ncn2C2CCOCC2)n1 | 250 nM
3 | O=c1cc(NCCCNC2CCOc3c(I)cc(Cl)cc32)[nH]c2ccccc12 (stereo not given) | 790 nM
4 | Cc1ncsc1CNc1cnc(-c2ccc3c(c2)OCCO3)c(-c2cnn(C)c2)c1 | 13000 nM
5 | COc1ccc(NS(=O)(=O)c2cc(NC(=O)Cc3ccc(C)cc3)ccc2N2CCOCC2)cc1 | 2000 nM
6 | c1ccc(Nc2nc(-c3ccccn3)cc(N3CCOCC3)n2)cc1 | 2000 nM
7 | Cc1ccc2c(c1)SC(C(=O)Nc1n[nH]c(-c3ccccn3)n1)C2 (stereo not given) | 5000 nM
8 | CNC(=O)C1Cc2ccccc2N1C(=O)Cc1ccccc1 (stereo not given) | > 50000 nM (inactive)
9 | O=C(CSc1ccc(-c2ccccn2)nn1)Nc1ccc(Cl)cc1 | 2500 nM
10 | COc1ccccc1CNc1cc(C2CC2)nc(-c2nccn2C)n1 | 790 nM
11 | CC1CCCN(S(=O)(=O)c2ccc(C(=O)Nc3nc(-c4ccccn4)cs3)cc2)C1 (stereo not given) | 400 nM
12 | COc1ccc(NS(=O)(=O)c2cc(-c3cc(C)[nH]n3)ccc2C)cc1OC | 1300 nM
13 | Oc1c(-c2n[nH]c(CCc3ccccc3)n2)ncc2cccnc12 | 200 nM
14 | O=C(NCCc1csc(-c2ccc(F)cc2)n1)c1cccs1 | 400 nM
15 | O=C(CSc1ccc(F)cc1)N[C@@H](Cc1cnc[nH]1)C(=O)NCCc1ccccc1 | 400 nM
16 | O=C(Nc1ccc(S(=O)(=O)N2CCCC2)cc1)c1ccc([N+](=O)[O-])s1 | 200 nM
17 | Cc1ccc(S(C)(=O)=O)cc1Nc1nccc(-c2sc(N)nc2-c2ccccc2)n1 | 130 nM
18 | COc1ccc2ncc(F)c(CCN3CC[C@@H](NC(=O)c4cc5c(s4)CCC5)[C@@H](O)C3)c2n1 | 160 nM
19 | Oc1cccnc1-c1n[nH]c(Cc2ccccc2)n1 | 6300 nM
20 | COC(=O)c1ccc(-c2cnc3ccc(NCc4ccccn4)nn23)cc1 | 7900 nM
21 | O=C(CN1CCN(S(=O)(=O)c2cccc([N+](=O)[O-])c2)CC1)Nc1ccc(Oc2ccccc2)cc1 | 2500 nM
22 | CC(=O)Nc1ccc(-c2csc(NC(=O)c3ccc([N+](=O)[O-])s3)n2)cc1 | 130 nM

Row | SMILES | IC50
23 | Cc1c(Nc2cc(C3CC3)[nH]n2)ccc(C#N)c1Cl | 2500 nM
24 | COc1ccc(C(=O)N2CCC(Nc3cccnc3)C2)c(OC)n1 (stereo not given) | 320 nM
25 | Cc1cc(-c2cccc3ccccc23)nc2nc(N)nc(N)c12 | 40000 nM
26 | OCC1CCCCN1c1cc(-c2ccccn2)nc(Nc2ccccc2)n1 (stereo not given) | 790 nM
27 | Cc1nn2c(NCCCO)c3c(nc2c1-c1cccs1)CCC3 | 16000 nM
28 | CC(Cn1ccnc1)NC(=O)COc1ccc(Cl)c(Cl)c1 (stereo not given) | 200 nM
29 | COc1ccc(-c2cc(C)no2)cc1S(=O)(=O)Nc1ccc(C)c(C)c1 | 5000 nM
30 | O=C(C1CCCCC1)N1CCN(c2nnc(-c3ccccc3)c3ccccc23)CC1 | 1000 nM
31 | CC(C)(C)Nc1nc(-c2ccccn2)nc2ccccc12 | 1300 nM
32 | Cc1cc2cncn2c(C2CCCCN2C(=O)c2cccs2)n1 (stereo not given) | 25 nM
33 | C[C@@H](Oc1cc(-n2cnc3ccc(CC(O)CO)cc32)sc1C(N)=O)c1ccccc1Cl (stereo not given in full) | 3200 nM
34 | COc1ccc(OC)c2c(=O)c(Cc3ccccc3)c(C)[nH]c12 | 200 nM
35 | COc1ccc2nc(N(Cc3cccnc3)C(=O)C3CCC3)sc2c1 | 130 nM
36 | Cc1cc(Nc2cc(C3CC3)[nH]n2)nc(N2CCCC2)n1 | 79 nM
37 | CCOc1ccc(N(C)S(=O)(=O)c2ccc3[nH]cc(C(=O)NC4CCCC4)c(=O)c3c2)cc1 | 7900 nM
38 | Cc1nn(-c2nc(N)nc(-c3ccccn3)n2)c(N)c1-c1ccccc1 | 4000 nM
39 | Cc1ccc2ccc(C(Nc3ccccn3)c3cccnc3)c(O)c2n1 (stereo not given) | 500 nM
40 | O=S(=O)(NCC(c1cccnc1)N1CCN(c2ccccc2F)CC1)c1ccc(F)cc1 (stereo not given) | 500 nM
41 | Cc1nc2c(-c3cccs3)c(C)nn2c(NCCO)c1C | 40000 nM
42 | CCc1cccc(-n2nc(OCC(=O)NC3CCCC3)c3cccnc32)c1 | > 50000 nM (inactive)
43 | CN1CCCN(C(=O)c2ccc(N3CCCC3)cc2Cl)CC1 | 790 nM
44 | COc1cc(OC)cc(C(=O)N[C@@H](CC(C)C)C(=O)NC2(C#N)CC2)c1 | > 50000 nM (inactive)

Row | SMILES | IC50
45 | CCN(Cc1nc2ccc(C(=O)N3CCN(c4ncccn4)CC3)cc2[nH]1)C1CCCc2cccnc21 (stereo not given) | 1300 nM
46 | O=C1CCCCCC1(Cc1cnc[nH]1)c1ccc(Cl)cc1Cl (stereo not given) | 250 nM
47 | COc1ccc(OC)c(S(=O)(=O)N(Cc2c(F)cccc2F)[C@@H]2CCN(C#N)C2)c1 | 6300 nM
48 | CCN(CC)S(=O)(=O)c1ccc(Cn2nc(C(=O)Nc3ccncn3)c3ccccc32)cc1 | 320 nM
49 | CN(Cc1nnnn1C1CCN(Cc2ccc(-n3ccnc3)cc2)CC1)c1ccc(F)cc1F | 320 nM
50 | CN(CC1CCCO1)S(=O)(=O)c1ccc(C(=O)Nc2nc(-c3ccccn3)cs2)cc1 (stereo not given) | 1600 nM
51 | Cc1c(C(=O)NCCCCn2ccnc2)oc2c(C)cccc12 | 200 nM
52 | Cn1cc(CN2CCN(c3ccc4c(c3)CCN(C(=O)[C@H]3C[C@@H]3c3ccccc3)CC4)CC2)cn1 | 1600 nM
53 | Clc1ccc(C(CC2CCCCO2)Cn2cncn2)c(Cl)c1 (stereo not given) | 400 nM
54 | Cn1c(CC(=O)NNC(=O)c2ccc3ccccc3n2)nc2ccccc21 | 3200 nM
55 | COc1ccc([N+](=O)[O-])cc1NC(=O)Nc1cccc(Cl)c1 | 790 nM
56 | CN(C)c1ncc(-c2cncn2CCOc2ccc(Cl)cc2)cn1 | 200 nM
57 | O=C(Nc1nccs1)c1ccccc1Cn1cc([N+](=O)[O-])cn1 | > 50000 nM (inactive)
58 | CC(CNS(=O)(=O)c1ccc(OC(F)F)cc1)c1ccc(NC(=O)c2ccncc2)cc1 (stereo not given) | 200 nM
59 | CC(=O)Nc1ccc(CN2CCC(N3CC(c4ccccc4)(c4ccccc4)OCC3=O)CC2)cc1 | 13000 nM
60 | COc1cccc(S(=O)(=O)Nc2ccc3c(c2)CC(N2CCC(NC(=O)C4CC4)CC2)C3)c1 (stereo not given) | 40000 nM
61 | CN(Cc1nc2c(C(=O)N3CCN(Cc4ccccc4)CC3)cccc2[nH]1)C1CCCc2cccnc21 (stereo not given) | 790 nM
62 | FC(F)(F)c1cc(C2CCCN(Cc3c[nH]c4ccccc34)C2)nc2ncnn12 (stereo not given) | 1600 nM
63 | CC(C(=O)Nc1ccccc1F)N(C)CC(=O)Nc1cccc2ccccc12 (stereo not given) | 400 nM
64 | Cc1ccc(Nc2nc(N)nc(CNC(c3nc4ccccc4[nH]3)C(C)C)n2)cc1 (stereo not given) | 1000 nM
65 | CCOc1ccc2nc(NC(=O)c3ccc([N+](=O)[O-])s3)sc2c1 | 1600 nM
66 | CC(=O)Nc1ccc(Nc2nccc(-c3cnn4ncccc34)n2)cc1C(F)(F)F | 50 nM

Row | SMILES | IC50
67 | O=C(Nc1ccc(C(F)(F)F)cc1)NC1(C(=O)NCc2ccco2)CCCCC1 | 7900 nM
68 | CC(C)(C)C(Cn1ccnc1)NC(=O)c1ccc2nc(C3CC3)oc2c1 (stereo not given) | 100 nM
69 | O=C(c1ccccc1)N1CCC(C(=O)N2CCC(Oc3ccccc3Cl)CC2)CC1 | 2000 nM
70 | CN(Cc1cc2ccccc2s1)c1ncc2c(N)nc(N)nc2n1 | 2000 nM
71 | CC(c1ccc2c(c1)CCCC2)N(C)c1ncc2c(N)nc(N)nc2n1 (stereo not given) | 32 nM
72 | Cc1nnnn1-c1cccc(C(=O)N2CCC[C@@]3(C)c4ncncc4CCC23)c1 (stereo not given in full) | 630 nM
73 | Cc1cc(N(C)C)nc2ccc(Cc3cnc(N)nc3N)cc12 | 1300 nM
74 | c1ccc2c(CCOc3nccnc3-c3ccncc3)c[nH]c2c1 | 130 nM
75 | O=C(NCCc1csc(-c2ccc(F)cc2)n1)c1ccco1 | 2000 nM
76 | O=C(N1CCc2ccccc2CC1)C1(C(=O)N2CCC(n3c(=O)[nH]c4ncccc43)CC2)CC1 | 630 nM
77 | COc1ccc(Cc2nc(-c3ncc4cccnc4c3O)n[nH]2)cc1OC | 1300 nM
78 | COc1ccc(S(=O)(=O)Nc2ccc(C(=O)Nc3nc(-c4ccccn4)cs3)cc2)cc1 | 790 nM
79 | Cc1cc(Oc2cc(Cl)c(Cl)cc2Cl)n2ncnc2n1 | 5000 nM
80 | CN(C)S(=O)(=O)c1ccc(-c2cnc(N)c(-c3nc4ccc(F)cc4[nH]3)c2)cc1 | 1300 nM
81 | Cc1ccc(Nc2nc(C3CCCN3Cc3ccn[nH]3)cs2)nc1 (stereo not given) | 790 nM
82 | O=c1[nH]c(NCCCNCc2cc(Br)cc(Br)c2)nc2ccsc12 | 630 nM
83 | C[C@@H](Oc1cc(-n2cnc3cc(N)ccc32)sc1C(N)=O)c1ccccc1Cl | 1300 nM
84 | COc1ccccc1C(=O)Nc1nnc(-c2ccc3c(c2)OCO3)s1 | 2500 nM
85 | COc1ccc(S(=O)(=O)NC(C)C)cc1Nc1ncc(-c2cccc(F)c2)cn1 | 630 nM
86 | O=S(=O)(c1ccccc1C(F)(F)F)N1CCN(Cc2ccc(-n3ccnc3)cc2)CC1 | 250 nM
87 | O=C1CN(C2CCCc3c(OCc4ccncc4)cccc32)C(=O)N1C1CCCCC1 (stereo not given) | 250 nM
88 | CCn1nccc1CN(C)C(=O)C=Cc1ccc(Cl)cc1 | 200 nM

Row | SMILES | IC50
89 | NCC(Cc1ccccc1)NC(=O)c1cnc(-c2c[nH]c3ncccc23)s1 (stereo not given) | 2000 nM
90 | COc1ccc(CNc2cc(C3CC3)nc(-c3nccn3C)n2)cc1 | 1000 nM
91 | c1cncc(CN(Cc2ccco2)Cc2cn[nH]c2-c2cccs2)c1 | 20 nM
92 | Cc1nn(-c2nc3ccccc3s2)c2c1C(c1ccc(OCC(N)=O)cc1)SCC(=O)N2 (stereo not given) | 5000 nM
93 | CCOc1cc(NCCCN2CCN(C)CC2)c2ncccc2c1 | 1600 nM
94 | O=c1[nH]c(C=Cc2cccc(OCCOc3ccccc3)c2)nc(O)c1[N+](=O)[O-] | 790 nM
95 | COc1ccc(NS(=O)(=O)c2cccc(NC(=O)c3cc(F)cc(F)c3)c2)cc1 | 790 nM
96 | O=c1[nH]ccc2ccc(-c3ccncc3)cc12 | 200 nM
97 | N#Cc1cccc(CNc2ccc(-c3cnn(CC4CC4)c(=O)c3C#N)cc2)c1 | 5000 nM
98 | NS(=O)(=O)c1ccc(Nc2ncc3cccc(OC4CCNCC4)c3n2)cc1 | 1600 nM
99 | O=C(Nc1cccc(Cl)c1)N1CCCCC1c1cccnc1 (stereo not given) | 160 nM
100 | O=C(c1ccc(OCCCc2cnc[nH]2)cc1)C1CC1 | 320 nM
101 | Cc1[nH]nc(-c2nc3ccccc3[nH]2)c1C(=O)NC1CCCNC1 (stereo not given) | 790 nM
102 | Cc1ccc(-c2csc(NC(=O)C=Cc3ccc(S(=O)(=O)N4CCOCC4)cc3)n2)o1 | 7900 nM
103 | O=C(NCC1CCCCC1)c1cnns1 | 2500 nM
104 | O=[N+]([O-])c1ccc(C2=CC(c3ccccc3)=NCCN2)cc1 | 500 nM
105 | O=c1ccc2ccc(F)c3c2n1C[C@H]3CN1CCC(NCc2cc3ccccc3o2)CC1 | 400 nM
106 | Cc1cc(N(C)C)nc(Nc2ccccc2C)n1 | 1600 nM
107 | Cc1cc(C)c(C#N)c(SCC(=O)c2ccc3c(c2)OCO3)n1 | 2000 nM
108 | CS(=O)(=O)NC1CCC(Nc2ncc(Br)c(Nc3ccccc3C(N)=O)n2)CC1 (stereo not given) | 7900 nM
109 | COc1ccc(Nc2nccc(N(C)c3n[nH]c4c(F)cccc34)n2)cc1S(C)(=O)=O | 2000 nM
110 | O=C(NCc1nnc2n1CCCCC2)c1ccc(-c2ccc(F)cc2)o1 | 1300 nM
